Tests used:
[1] = biological target: T1, ATP-dependent translocase ABCB1 (Homo sapiens, UniProt P08183); assay: Inhibition of p-glycoprotein expressed in human MCF-7/DX1 cells assessed as accumulation of calcein-AM by FACS analysis; assay type: cell-based
[2] = biological target: T1, ATP-dependent translocase ABCB1; assay: Inhibition of p-glycoprotein expressed in human MCF-7/DX1 cells assessed as accumulation of calcein-AM at 1 uM by FACS analysis; assay type: cell-based

T1 sequence (P08183 whole entry): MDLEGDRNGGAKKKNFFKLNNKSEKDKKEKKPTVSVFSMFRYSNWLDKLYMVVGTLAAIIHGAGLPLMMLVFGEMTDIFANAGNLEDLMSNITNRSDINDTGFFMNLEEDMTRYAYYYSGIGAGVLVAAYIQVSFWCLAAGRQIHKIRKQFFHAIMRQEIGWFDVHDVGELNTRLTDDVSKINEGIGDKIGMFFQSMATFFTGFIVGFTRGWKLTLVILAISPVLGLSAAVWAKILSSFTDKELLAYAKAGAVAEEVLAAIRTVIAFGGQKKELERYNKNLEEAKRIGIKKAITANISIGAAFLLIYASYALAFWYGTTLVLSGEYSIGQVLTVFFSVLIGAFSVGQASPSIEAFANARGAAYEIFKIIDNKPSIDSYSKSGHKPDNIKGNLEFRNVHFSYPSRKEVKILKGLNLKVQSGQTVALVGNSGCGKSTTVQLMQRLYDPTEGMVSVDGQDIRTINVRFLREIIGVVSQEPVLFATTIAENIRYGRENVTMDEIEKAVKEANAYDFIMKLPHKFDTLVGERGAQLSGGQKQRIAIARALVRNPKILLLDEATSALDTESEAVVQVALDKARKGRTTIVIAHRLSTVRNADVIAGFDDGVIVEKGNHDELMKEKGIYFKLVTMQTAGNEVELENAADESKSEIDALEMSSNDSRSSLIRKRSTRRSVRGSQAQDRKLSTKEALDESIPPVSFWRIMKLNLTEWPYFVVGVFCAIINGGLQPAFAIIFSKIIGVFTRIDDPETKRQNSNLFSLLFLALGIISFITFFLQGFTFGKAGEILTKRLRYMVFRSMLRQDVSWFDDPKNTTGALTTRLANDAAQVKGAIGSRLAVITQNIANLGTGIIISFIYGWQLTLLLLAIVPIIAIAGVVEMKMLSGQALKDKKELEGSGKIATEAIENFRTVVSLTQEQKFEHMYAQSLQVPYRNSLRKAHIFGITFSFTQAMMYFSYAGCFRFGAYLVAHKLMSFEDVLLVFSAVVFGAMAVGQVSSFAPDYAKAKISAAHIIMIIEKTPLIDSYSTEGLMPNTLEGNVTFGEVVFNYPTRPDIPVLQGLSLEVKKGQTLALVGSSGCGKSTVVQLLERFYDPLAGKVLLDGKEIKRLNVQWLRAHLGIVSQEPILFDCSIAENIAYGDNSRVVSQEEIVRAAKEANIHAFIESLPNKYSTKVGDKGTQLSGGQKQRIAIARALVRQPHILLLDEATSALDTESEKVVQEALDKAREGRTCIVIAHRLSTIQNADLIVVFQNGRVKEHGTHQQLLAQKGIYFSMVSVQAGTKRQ

Compound	IC50 [1]	inhibition (INH) [2]
C=C[C@H]1CN2CC[C@H]1C[C@H]2[C@H](OC(=O)CCc1cn(CCC(=O)O[C@H](c2ccnc3ccc(OC)cc23)[C@@H]2C[C@@H]3CCN2C[C@@H]3C=C)nn1)c1ccnc2ccc(OC)cc12	6.1 µM	–
C=C[C@H]1CN2CC[C@H]1C[C@H]2[C@H](OC(=O)CCCCn1cc(CCC(=O)O[C@H](c2ccnc3ccc(OC)cc23)[C@@H]2C[C@@H]3CCN2C[C@@H]3C=C)nn1)c1ccnc2ccc(OC)cc12	6.2 µM	–
C=C[C@H]1CN2CC[C@H]1C[C@H]2[C@H](OC(=O)CCCCCCn1cc(CCC(=O)O[C@H](c2ccnc3ccc(OC)cc23)[C@@H]2C[C@@H]3CCN2C[C@@H]3C=C)nn1)c1ccnc2ccc(OC)cc12	3.6 µM	–
C=C[C@H]1CN2CC[C@H]1C[C@H]2[C@H](OC(=O)CCCCc1cn(CCCCC(=O)O[C@H](c2ccnc3ccc(OC)cc23)[C@@H]2C[C@@H]3CCN2C[C@@H]3C=C)nn1)c1ccnc2ccc(OC)cc12	4.6 µM	–
C=C[C@H]1CN2CC[C@H]1C[C@H]2[C@H](OC(=O)CCCCCCn1cc(CCCCC(=O)O[C@H](c2ccnc3ccc(OC)cc23)[C@@H]2C[C@@H]3CCN2C[C@@H]3C=C)nn1)c1ccnc2ccc(OC)cc12	2.9 µM	–
C=C[C@H]1CN2CC[C@H]1C[C@H]2[C@H](OC(=O)CCCCCCc1cn(CCCCC(=O)O[C@H](c2ccnc3ccc(OC)cc23)[C@@H]2C[C@@H]3CCN2C[C@@H]3C=C)nn1)c1ccnc2ccc(OC)cc12	2.8 µM	–
C=C[C@H]1CN2CC[C@H]1C[C@H]2[C@H](OC(=O)CCCCCCc1cn(CCCCCCC(=O)O[C@H](c2ccnc3ccc(OC)cc23)[C@@H]2C[C@@H]3CCN2C[C@@H]3C=C)nn1)c1ccnc2ccc(OC)cc12	2.7 µM	Active
C=C[C@H]1CN2CC[C@H]1C[C@H]2[C@H](OC(=O)CCCCCCCCc1cn(CCCCCCCCC(=O)O[C@H](c2ccnc3ccc(OC)cc23)[C@@H]2C[C@@H]3CCN2C[C@@H]3C=C)nn1)c1ccnc2ccc(OC)cc12	4.5 µM	–
